# Target: PD-1/PD-L1 protein/protein interaction (Homo sapiens (Human), UniProt Q9NZQ7)
# Test: PD-1/PD-L1 Homogeneous Time-Resolved Fluorescence (HTRF) Binding Assay
# Details: recombinant human PD-L1 (19-238) His-tag, human PD-1 (25-167) Fc tag; 25° C., PBS pH 7.4
# Experimental: Example A. PD-1/PD-L1 Homogeneous Time-Resolved Fluorescence (HTRF) Binding Assay
# The assays were conducted in a standard black 384-well polystyrene plate with a final volume of 20 μL. Inhibitors were first serially diluted in DMSO and then added to the plate wells before the addition of other reaction components. The final concentration of DMSO in the assay was 1%. The assays were carried out at 25° C. in the PBS buffer (pH 7.4) with 0.05% Tween-20 and 0.1% BSA. Recombinant human PD-L1 protein (19-238) with a His-tag at the C-terminus was purchased from AcroBiosystems (PD1-H5229). Recombinant human PD-1 protein (25-167) with Fc tag at the C-terminus was also purchased from AcroBiosystems (PD1-H5257). PD-L1 and PD-1 proteins were diluted in the assay buffer and 10 μL was added to the plate well. Plates were centrifuged and proteins were preincubated with inhibitors for 40 minutes. The incubation was followed by the addition of 10 μL of HTRF detection buffer supplemented with Europium cryptate-labeled anti-human IgG (PerkinElmer-AD0212) specific for Fc and anti-His antibody conjugated to SureLight®-Allophycocyanin (APC, PerkinElmer-AD0059H). After centrifugation, the plate was incubated at 25° C. for 60 min. before reading on a PHERAstar FS plate reader (665 nm/620 nm ratio). Final concentrations in the assay were […], 10 nM PD-L1, 1 nM europium anti-human IgG and 20 nM anti-His-Allophycocyanin. IC50 determination was performed by fitting the curve of percent control activity versus the log of the inhibitor concentration using the GraphPad Prism 5.0 software.
# Data obtained for the Example compounds using the PD-1/PD-L homogenous time-resolved fluorescence (HTRF) binding assay described in Example A is provided in Table 1.
# Sequence of PD-1/PD-L1 protein/protein interaction (Q9NZQ7 19-238): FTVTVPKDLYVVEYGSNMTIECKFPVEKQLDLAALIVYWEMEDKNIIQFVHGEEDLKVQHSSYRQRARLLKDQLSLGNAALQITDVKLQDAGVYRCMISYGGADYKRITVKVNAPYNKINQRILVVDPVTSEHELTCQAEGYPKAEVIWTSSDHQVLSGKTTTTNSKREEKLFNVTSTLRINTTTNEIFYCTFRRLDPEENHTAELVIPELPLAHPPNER
row,Structure (SMILES),IC50
1,"Cc1c(-c2ccccc2)cccc1-c1nc2c(s1)CN(C[C@@H]1C[C@H]1C(=O)O)CC2 (relative stereo) [Example 9, Trans-2-{[2-(2-methylbiphenyl-3-yl)-6,7-dihydro[1,3]thiazolo[5,4-c]pyridin-5(4H)-yl]methyl}cyclopropanecarboxylic acid]",0.1 to 0.5 µM
2,"Cc1c(-c2ccccc2)cccc1-c1nc2c(s1)CCNC2 [Example 1, 2-(2-methylbiphenyl-3-yl)-4,5,6,7-tetrahydro[1,3]thiazolo[4,5-c]pyridine]",0.5 to 10 µM
3,"Cc1c(-c2ccccc2)cccc1-c1nc2c(s1)CNCC2 [Example 2, 2-(2-methylbiphenyl-3-yl)-4,5,6,7-tetrahydro[1,3]thiazolo[5,4-c]pyridine]",≤ 0.1 µM
4,"Cc1c(-c2ccccc2)cccc1-c1nc2c(s1)CN(C)CC2 [Example 3, 5-methyl-2-(2-methylbiphenyl-3-yl)-4,5,6,7-tetrahydro[1,3]thiazolo[5,4-c]pyridine]",≤ 0.1 µM
5,"Cc1c(-c2ccccc2)cccc1-c1nc2c(s1)CN(CCO)CC2 [Example 4, 2-[2-(2-methylbiphenyl-3-yl)-6,7-dihydro[1,3]thiazolo[5,4-c]pyridin-5(4H)-yl]ethanol]",≤ 0.1 µM
6,"Cc1c(-c2ccccc2)cccc1-c1nc2c(s1)CN(C[C@H](C)O)CC2 [Example 5, (2S)-1-[2-(2-methylbiphenyl-3-yl)-6,7-dihydro[1,3]thiazolo[5,4-c]pyridin-5(4H)-yl]propan-2-ol]",≤ 0.1 µM
7,"Cc1c(-c2ccccc2)cccc1-c1nc2c(s1)CN(C1CCOCC1)CC2 [Example 6, 2-(2-methylbiphenyl-3-yl)-5-(tetrahydro-2H-pyran-4-yl)-4,5,6,7-tetrahydro[1,3]thiazolo[5,4-c]pyridine]",0.1 to 0.5 µM
8,"Cc1c(-c2ccccc2)cccc1-c1nc2c(s1)CN(C1CCC(C(=O)O)CC1)CC2 (stereo not shown) [Example 7, 4-[2-(2-methylbiphenyl-3-yl)-6,7-dihydro[1,3]thiazolo[5,4-c]pyridin-5(4H)-yl]cyclohexanecarboxylic acid]",≤ 0.1 µM
9,"Cc1c(-c2ccccc2)cccc1-c1nc2c(s1)CN(CCCC(=O)O)CC2 [Example 8, 4-[2-(2-methylbiphenyl-3-yl)-6,7-dihydro[1,3]thiazolo[5,4-c]pyridin-5(4H)-yl]butanoic acid]",≤ 0.1 µM
10,"Cc1c(-c2ccccc2)cccc1-c1nc2c(s1)CN(Cc1cn[nH]c1)CC2 [Example 10, 2-(2-methylbiphenyl-3-yl)-5-(1H-pyrazol-4-ylmethyl)-4,5,6,7-tetrahydro[1,3]thiazolo[5,4-c]pyridine]",0.1 to 0.5 µM
11,"Cc1c(-c2ccccc2)cccc1-c1nc2c(s1)CN(C1CCC(CC#N)CC1)CC2 (stereo not shown) [Example 11, {4-[2-(2-methylbiphenyl-3-yl)-6,7-dihydro[1,3]thiazolo[5,4-c]pyridin-5(4H)-yl]cyclohexyl}acetonitrile]",0.1 to 0.5 µM
12,"Cc1c(-c2ccccc2)cccc1-c1cc2n(n1)CCNC2 [Example 12, 2-(2-methylbiphenyl-3-yl)-4,5,6,7-tetrahydropyrazolo[1,5-a]pyrazine]",0.1 to 0.5 µM
13,"N#Cc1c(-c2ccc3c(c2)OCCO3)cccc1-c1nc2c(s1)CNCC2 [Example 13, 2-(2,3-dihydro-1,4-benzodioxin-6-yl)-6-(4,5,6,7-tetrahydro[1,3]thiazolo[5,4-c]pyridin-2-yl)benzonitrile]",≤ 0.1 µM
14,"Cc1c(-c2ccccc2)ccnc1-c1nc2c(s1)CNCC2 [Example 14, 2-(3-methyl-4-phenylpyridin-2-yl)-4,5,6,7-tetrahydro[1,3]thiazolo[5,4-c]pyridine]",≤ 0.1 µM
15,"COc1cccc(-c2ccnc(-c3nc4c(s3)CNCC4)c2C)c1 [Example 15, 2-[4-(3-methoxyphenyl)-3-methylpyridin-2-yl]-4,5,6,7-tetrahydro[1,3]thiazolo[5,4-c]pyridine]",≤ 0.1 µM
16,"Cc1c(-c2ccc3c(c2)OCCO3)ccnc1-c1nc2c(s1)CNCC2 [Example 16, 2-[4-(2,3-dihydro-1,4-benzodioxin-6-yl)-3-methylpyridin-2-yl]-4,5,6,7-tetrahydro[1,3]thiazolo[5,4-c]pyridine]",≤ 0.1 µM
17,"Cc1c(-c2ccccc2)cccc1-n1cc2c(n1)CCNC2 [Example 17, 2-(2-methylbiphenyl-3-yl)-4,5,6,7-tetrahydro-2H-pyrazolo[4,3-c]pyridine]",0.1 to 0.5 µM
18,"Cc1c(-c2ccccc2)cccc1-n1cc2c(n1)CNCC2 [Example 18, 2-(2-methylbiphenyl-3-yl)-4,5,6,7-tetrahydro-2H-pyrazolo[3,4-c]pyridine]",≤ 0.1 µM
19,"Cc1c(-c2ccccc2)cccc1-c1nc2c(s1)CNCC2(C)C [Example 19, 7,7-dimethyl-2-(2-methylbiphenyl-3-yl)-4,5,6,7-tetrahydro[1,3]thiazolo[5,4-c]pyridine]",0.5 to 10 µM

row,Structure (SMILES),IC50
1,"Cc1c(-c2ccccc2)cccc1-c1cn2c(n1)CNCC2 [Example 20, 2-(2-methylbiphenyl-3-yl)-5,6,7,8-tetrahydroimidazo[1,2-a]pyrazine]",0.5 to 10 µM
2,"Cc1c(-c2ccccc2)cccc1-c1nc2c([nH]1)CCNC2 [Example 21, 2-(2-methylbiphenyl-3-yl)-4,5,6,7-tetrahydro-1H-imidazo[4,5-c]pyridine]",0.5 to 10 µM
3,"Cc1c(-c2ccccc2)cccc1-c1nc2c(o1)CNCC2 [Example 22, 2-(2-methylbiphenyl-3-yl)-4,5,6,7-tetrahydro[1,3]oxazolo[5,4-c]pyridine]",≤ 0.1 µM
4,"Cc1c(-c2ccccc2)cccc1-c1nc2c(o1)CCNC2 [Example 23, 2-(2-methylbiphenyl-3-yl)-4,5,6,7-tetrahydro[1,3]oxazolo[4,5-c]pyridine]",≤ 0.1 µM
5,"Cc1c(-c2ccccc2)cccc1-c1nc2c(o1)CCN(C)C2 [Example 24, 5-methyl-2-(2-methylbiphenyl-3-yl)-4,5,6,7-tetrahydro[1,3]oxazolo[4,5-c]pyridine]",≤ 0.1 µM
6,"Cc1c(-c2ccccc2)cccc1-c1nc2n(n1)CCNC2 [Example 25, 2-(2-methylbiphenyl-3-yl)-5,6,7,8-tetrahydro[1,2,4]triazolo[1,5-a]pyrazine]",0.1 to 0.5 µM
7,"Cc1c(-c2nc3c(s2)CNCC3)ccnc1-c1ccc2c(c1)OCCO2 [Example 26, 2-[2-(2,3-dihydro-1,4-benzodioxin-6-yl)-3-methylpyridin-4-yl]-4,5,6,7-tetrahydro[1,3]thiazolo[5,4-c]pyridine]",0.5 to 10 µM
8,"Cc1c(-c2ccsc2)cccc1-c1nc2c(s1)CNCC2 [Example 27, 2-[2-methyl-3-(3-thienyl)phenyl]-4,5,6,7-tetrahydro[1,3]thiazolo[5,4-c]pyridine]",0.1 to 0.5 µM
9,"COc1cccc(-c2cccc(-c3nc4c(s3)CNCC4)c2C)c1 [Example 28, 2-(3′-methoxy-2-methylbiphenyl-3-yl)-4,5,6,7-tetrahydro[1,3]thiazolo[5,4-c]pyridine]",≤ 0.1 µM
10,"Cc1c(C2=CCOCC2)cccc1-c1nc2c(s1)CNCC2 [Example 29, 2-[3-(3,6-dihydro-2H-pyran-4-yl)-2-methylphenyl]-4,5,6,7-tetrahydro[1,3]thiazolo[5,4-c]pyridine]",0.5 to 10 µM
11,"COc1cc(-c2cccc(-c3nc4c(s3)CNCC4)c2C)ccn1 [Example 30, 2-[3-(2-methoxypyridin-4-yl)-2-methylphenyl]-4,5,6,7-tetrahydro[1,3]thiazolo[5,4-c]pyridine]",0.1 to 0.5 µM
12,"Cc1c(-c2ccc(F)cn2)cccc1-c1nc2c(s1)CNCC2 [Example 31, 2-[3-(5-fluoropyridin-2-yl)-2-methylphenyl]-4,5,6,7-tetrahydro[1,3]thiazolo[5,4-c]pyridine]",0.5 to 10 µM
13,"Cc1c(C2=CCCCC2)cccc1-c1nc2c(s1)CNCC2 [Example 32, 2-(3-cyclohex-1-en-1-yl-2-methylphenyl)-4,5,6,7-tetrahydro[1,3]thiazolo[5,4-c]pyridine]",≤ 0.1 µM
14,"CCOc1cccc(-c2cccc(-c3nc4c(s3)CNCC4)c2C)c1 [Example 33, 2-(3′-ethoxy-2-methylbiphenyl-3-yl)-4,5,6,7-tetrahydro[1,3]thiazolo[5,4-c]pyridine]",≤ 0.1 µM
15,"COc1cc(OC)cc(-c2cccc(-c3nc4c(s3)CNCC4)c2C)c1 [Example 34, 2-(3′,5′-dimethoxy-2-methylbiphenyl-3-yl)-4,5,6,7-tetrahydro[1,3]thiazolo[5,4-c]pyridine]",≤ 0.1 µM
16,"N#Cc1c(-c2ccc3c(c2)OCCO3)ccnc1-c1nc2c(s1)CNCC2 [Example 35, 4-(2,3-dihydro-1,4-benzodioxin-6-yl)-2-(4,5,6,7-tetrahydro[1,3]thiazolo[5,4-c]pyridin-2-yl)nicotinonitrile]",0.1 to 0.5 µM
17,"Cc1c(-c2cccc(OCCO)c2)cccc1-c1nc2c(s1)CNCC2 [Example 36, 2-{[2′-methyl-3′-(4,5,6,7-tetrahydro[1,3]thiazolo[5,4-c]pyridin-2-yl)biphenyl-3-yl]oxy}ethanol]",0.1 to 0.5 µM
18,"COc1cc(OC)c(F)c(-c2cccc(-c3nc4c(s3)CNCC4)c2C)c1F [Example 37, 2-(2′,6′-difluoro-3′,5′-dimethoxy-2-methylbiphenyl-3-yl)-4,5,6,7-tetrahydro[1,3]thiazolo[5,4-c]pyridine]",≤ 0.1 µM
